Measurements reported in US20070249639A1, “Use of 9H-Purine-2,6-Diamine Derivatives in the Treatment of Proliferative Diseases and Novel 9H-Purine-2,6-Diamine Derivatives” (priority 2004, published 2007).

target: T1, human topoisomerase II α (Homo sapiens, UniProt P11388); assay: Topoisomerase II ATPase assay (Malachite Green); format: biochemical; conditions: not given
T1 construct: purchased Professor Neil Osheroff (Vanderbilt University, Nashville, Tenn., USA)
Experimental: The inhibition of topoisomerase II is measured as follows:
Purified human topoisomerase II α was purchased from Professor Neil Osheroff (Vanderbilt University—Nashville, Tenn., USA).
The pUC18 (Stratagene) plasmid was introduced into Escherichia coil XL-1 (Stratagene) and purified with the HiSpeed Plasmid Purification kit (Qiagen) according to the manufacturer instructions. The purity of the DNA preparations was evaluated spectrophotometrically (OD260/OD280 ratio) and by agarose gel.
Preparation of the Malachite Green Reagent:
Three volumes of 0.045% malachite green (Sigma, catalog no. M-9636) diluted in water are mixed for 20 min at room temperature with one volume of 4.2% ammonium molybdate (Axon Lab AG, catalog no. A-2246) diluted in 4 N HCl. After mixing, Triton X-100 (Merck, catalog no. 1.12298) is added to a final concentration of 0.01%. The solution is filtered at 0.2 μm and stored at room temperature in the dark.
ATP hydrolysis was monitored by measuring the production of inorganic phosphate released during the catalytic cycle of topoisomerase II α with acidic molybdate and malachite green (Lanzetta,et al., An improved assay for nanomole amounts of inorganic phosphate, Anal Biochem 1979;100:95-7). Briefly, human topoisomerase II α is pre-incubated at 37° C. for 10 min in 90 μl reaction buffer (10 mM Tris.HCl pH 7.9, 175 mM KCl, 1 mM EDTA, 2 mM DTT, 5 mM MgCl2, 2.5% glycerol) in the presence of the indicated amount of pUC18 and DMSO in F96 maxisorp Nunclmmuno plates (Nunc). The reaction is initiated by the addition of 10 μl ATP at the indicated concentrations and is carried out for 30 min at 37° C. under constant agitation. The reaction is stopped by the addition of 200 μl molybdate/malachite green solution and the absorbance is immediately measured at 630 nm. The OD630 value is measured in the absence of protein for each ATP concentration (background) is subtracted from the value obtained in the presence of enzyme. A standard curve with inorganic phosphate is used to determine the amount of inorganic phosphate produced during the reaction and to ensure that the measures are in the linear range of the assay. The kinetic parameters of the enzymes are determined from measurements (at least in duplicate) of the initial rates at different ATP concentrations. The data are analyzed with GraFit (Erithacus Software).
The compounds are tested at 10 μM of concentration to determine their inhibition potential given % of inhibition of the TOPO II ATPase activity.
For the determination of the IC50, the procedure is repeated for different concentrations of test compound selected to cover the range of 0% to 100% inhibition and the concentration at which 50% inhibition of topoisomerase II occurs (IC50) for each compound is determined from concentration-inhibition curves in a conventional manner.

T1 sequence (P11388 whole entry): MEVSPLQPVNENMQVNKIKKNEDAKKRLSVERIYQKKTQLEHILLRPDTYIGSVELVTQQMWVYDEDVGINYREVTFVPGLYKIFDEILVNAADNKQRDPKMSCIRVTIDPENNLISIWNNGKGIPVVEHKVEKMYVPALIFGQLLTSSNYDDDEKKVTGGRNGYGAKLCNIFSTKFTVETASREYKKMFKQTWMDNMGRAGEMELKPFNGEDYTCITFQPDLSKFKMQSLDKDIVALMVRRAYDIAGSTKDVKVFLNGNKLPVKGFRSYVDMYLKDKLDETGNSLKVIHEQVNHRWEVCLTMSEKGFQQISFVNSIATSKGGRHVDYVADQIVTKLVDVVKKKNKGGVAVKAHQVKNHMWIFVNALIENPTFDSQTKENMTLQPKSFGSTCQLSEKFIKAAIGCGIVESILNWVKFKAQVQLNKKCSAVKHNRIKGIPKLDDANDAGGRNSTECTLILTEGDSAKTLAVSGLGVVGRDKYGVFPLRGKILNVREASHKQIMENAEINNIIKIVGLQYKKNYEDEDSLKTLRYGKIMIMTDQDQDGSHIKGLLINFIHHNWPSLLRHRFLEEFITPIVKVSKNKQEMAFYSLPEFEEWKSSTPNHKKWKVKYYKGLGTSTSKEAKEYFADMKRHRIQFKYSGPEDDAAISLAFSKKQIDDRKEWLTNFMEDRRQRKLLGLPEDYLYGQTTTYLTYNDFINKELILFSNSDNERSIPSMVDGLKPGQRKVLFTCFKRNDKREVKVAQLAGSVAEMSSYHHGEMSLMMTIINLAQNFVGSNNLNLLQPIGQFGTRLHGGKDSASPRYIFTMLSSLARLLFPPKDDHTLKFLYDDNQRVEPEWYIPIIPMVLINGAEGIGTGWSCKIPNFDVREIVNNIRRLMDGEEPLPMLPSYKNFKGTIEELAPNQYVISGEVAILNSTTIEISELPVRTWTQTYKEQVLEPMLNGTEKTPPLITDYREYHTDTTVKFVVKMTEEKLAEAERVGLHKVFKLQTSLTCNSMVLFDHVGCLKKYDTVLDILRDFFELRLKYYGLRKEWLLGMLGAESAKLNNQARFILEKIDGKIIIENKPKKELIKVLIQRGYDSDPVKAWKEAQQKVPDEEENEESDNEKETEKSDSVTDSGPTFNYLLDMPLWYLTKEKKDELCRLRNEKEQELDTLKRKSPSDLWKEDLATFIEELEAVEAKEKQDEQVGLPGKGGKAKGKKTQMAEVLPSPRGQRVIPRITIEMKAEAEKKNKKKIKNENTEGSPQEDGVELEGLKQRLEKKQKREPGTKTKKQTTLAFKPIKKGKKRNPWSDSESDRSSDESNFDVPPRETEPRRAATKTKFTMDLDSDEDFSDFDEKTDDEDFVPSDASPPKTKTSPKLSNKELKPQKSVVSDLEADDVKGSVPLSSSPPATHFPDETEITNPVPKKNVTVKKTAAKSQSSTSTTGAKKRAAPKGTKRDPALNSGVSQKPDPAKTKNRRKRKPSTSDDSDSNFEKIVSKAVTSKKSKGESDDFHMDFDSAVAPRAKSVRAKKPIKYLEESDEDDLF

| IC50 [nM] | Compound |
| --- | --- |
| 900 | CCc1nc2c(NC(C)(C)C)nc(Nc3ccc4nc(SC)sc4c3)nc2[nH]1 [Example 36, N*6*-tert-Butyl-8-ethyl-N*2*-(2-methylsulfanyl-benzothiazol-6-yl)-9H-purine-2,6-diamine] |
| 3300 | CC(C)(C)Nc1nc(Nc2ccc3ccccc3c2)nc2[nH]cnc12 [Example 15, N*6*-tert-Butyl-N*2*-naphthalen-2-yl-9H-purine-2,6-diamine] |

same assay, conditions: Percent inhibition @10 μM, Malachite Green assay; read-out: TOPO II inh. (inhibition of the TOPO ATPase activity)

| Compound | inhibition at 10 µM [%] |
| --- | --- |
| c1cnc2ccc(Nc3nc(Nc4ccc5ncccc5c4)c4nc[nH]c4n3)cc2c1 [Example 10, N*2*,N*6*-Di-quinolin-6-yl-9H-purine-2,6-diamine] | < 50 |
| c1ccc(N2CCN(c3nc(Nc4ccc5ncccc5c4)nc4[nH]cnc34)CC2)nc1 [Example 61, [6-(4-Pyridin-2-yl-piperazin-1-yl)-9H-purin-2-yl]-quinolin-6-yl-amine] | < 50 |
| CCc1nc2c(N3CCCC3C)nc(Nc3ccc4ncsc4c3)nc2[nH]1 (stereo not drawn) [Example 29, Benzothiazol-6-yl-[8-ethyl-6-(2-methyl-pyrrolidin-1-yl)-9H-purin-2-yl]-amine] | < 50 |
| c1ccc(C(Nc2nc(Nc3ccc4ncccc4c3)nc3[nH]cnc23)c2ccccc2)cc1 [Example 13, N*6*-Benzhydryl-N*2*-quinolin-6-yl-9H-purine-2,6-diamine] | < 50 |
| CC(C)(CO)Nc1nc(Nc2ccc3ncsc3c2)nc2[nH]cnc12 [Example 68, 2-[2-(Benzothiazol-6-ylamino)-9H-purin-6-ylamino]-2-methyl-propan-1-ol] | < 50 |
| c1nc2c(NC3C4CC5CC(C4)CC3C5)nc(Nc3ccc4ncsc4c3)nc2[nH]1 (stereo not drawn) [Example 5, N*6*-Adamantan-2-yl-N*2*-benzothiazol-6-yl-9H-purine-2,6-diamine] | 50 to 65 |
| c1cnc2ccc(Nc3nc(NC4CCCCCC4)c4nc[nH]c4n3)cc2c1 [Example 67, N*6*-Cycloheptyl-N*2*-quinolin-6-yl-9H-purine-2,6-diamine] | < 50 |
| CCC(C)(C)Nc1nc(Nc2ccc3nsnc3c2)nc2[nH]cnc12 [Example 53, N*2*-Benzo[1,2,5]thiadiazol-5-yl-N*6*-(1,1-dimethyl-propyl)-9H-purine-2,6-diamine] | < 50 |
| c1nc2c(NC3CC4CCC3C4)nc(Nc3ccc4ncsc4c3)nc2[nH]1 (stereo not drawn) [Example 6, N*2*-Benzothiazol-6-yl-N*6*-bicyclo[2.2.1]hept-2-yl-9H-purine-2,6-diamine] | 50 to 65 |
| c1ccc(N2CCN(c3nc(Nc4ccc5nsnc5c4)nc4[nH]cnc34)CC2)nc1 [Example 62, Benzo[1,2,5]thiadiazol-5-yl-[6-(4-pyridin-2-yl-piperazin-1-yl)-9H-purin-2-yl]-amine] | < 50 |
| CCc1nc2c(NC(C)C(F)(F)F)nc(Nc3ccc4ncsc4c3)nc2[nH]1 (stereo not drawn) [Example 28, N*2*-Benzothiazol-6-yl-8-ethyl-N*6*-(2,2,2-trifluoro-1-methyl-ethyl)-9H-purine-2,6-diamine] | 50 to 65 |
| c1nc2c(NC3CCCCCC3)nc(Nc3ccc4ncsc4c3)nc2[nH]1 [Example 66, N*2*-Benzothiazol-6-yl-N*6*-cycloheptyl-9H-purine-2,6-diamine] | < 50 |
| Cc1nc2ccc(Nc3nc(NC(C)(C)Cc4ccc(F)cc4)c4nc[nH]c4n3)cc2s1 [Example 58, N*6*-[2-(4-Fluoro-phenyl)-1,1-dimethyl-ethyl]-N*2*-(2-methyl-benzothiazol-6-yl)-9H-purine-2,6-diamine] | < 50 |
| OC1CCC(Nc2nc(Nc3ccc4ncsc4c3)nc3[nH]cnc23)CC1 (stereo not drawn) [Example 9, 4-[2-(Benzothiazol-6-ylamino)-9H-purin-6-ylamino]-cyclohexanol] | < 50 |
| c1nc2c(NC3CCCCCCC3)nc(Nc3ccc4ncsc4c3)nc2[nH]1 [Example 7, N*2*-Benzothiazol-6-yl-N*6*-cyclooctyl-9H-purine-2,6-diamine] | 50 to 65 |
| c1ccc(N2CCN(c3nc(Nc4ccc5ncsc5c4)nc4[nH]cnc34)CC2)nc1 [Example 60, Benzothiazol-6-yl-[6-(4-pyridin-2-yl-piperazin-1-yl)-9H-purin-2-yl]-amine] | < 50 |
| c1ccc(Nc2nc(Nc3ccc4ncccc4c3)nc3[nH]cnc23)cc1 [Example 12, N*6*-Phenyl-N*2*-quinolin-6-yl-9H-purine-2,6-diamine] | 50 to 65 |
| CCC(C)(C)Nc1nc(Nc2ccc3ncccc3c2)nc2[nH]cnc12 [Example 52, N*6*-(1,1-Dimethyl-propyl)-N*2*-quinolin-6-yl-9H-purine-2,6-diamine] | < 50 |
| CC(C)(Cc1ccc(F)cc1)Nc1nc(Nc2ccc3ncsc3c2)nc2[nH]cnc12 [Example 55, N*2*-Benzothiazol-6-yl-N*6*-[2-(4-fluoro-phenyl)-1,1-dimethyl-ethyl]-9H-purine-2,6-diamine] | < 50 |

Further lines, results first:

| inhibition at 10 µM [%] | Compound |
| --- | --- |
| 50 to 65 | CC(C)(C)Nc1nc(Nc2ccc3ncsc3c2)nc2[nH]cnc12 [Example 65, N*2*-Benzothiazol-6-yl-N*6*-tert-butyl-9H-purine-2,6-diamine] |
| ≥ 80 | COc1ccc2cc(Nc3nc(NC(C)(C)C)c4nc[nH]c4n3)ccc2c1 [Example 21, N*6*-tert-Butyl-N*2*-(6-methoxy-naphthalen-2-yl)-9H-purine-2,6-diamine] |
| < 50 | CCc1nc2c(NC(C)(C)C)nc(Nc3ccc4ccccc4c3)nc2[nH]1 [Example 73, N*6*-tert-Butyl-8-ethyl-N*2*-naphthalen-2-yl-9H-purine-2,6-diamine] |
| ≥ 80 | CCc1nc2c(NC(C)(C)C)nc(Nc3ccc4nc(OCCN5CCOCC5)sc4c3)nc2[nH]1 [Example 37, N*6*-tert-Butyl-8-ethyl-N*2*-[2-(2-morpholin-4-yl-ethoxy)-benzothiazol-6-yl]-9H-purine-2,6-diamine] |
| 65 to 80 | CC(C)(C)Nc1nc(Nc2ccc(-c3nc4ccccc4s3)cc2)nc2[nH]cnc12 [Example 20, N*2*-(4-Benzothiazol-2-yl-phenyl)-N*6*-tert-butyl-9H-purine-2,6-diamine] |
| < 50 | CC(C)(C)Nc1nc(Nc2ccc3nsnc3c2)nc2[nH]cnc12 [Example 47, N*2*-Benzo[1,2,5]thiadiazol-5-yl-N*6*-tert-butyl-9H-purine-2,6-diamine] |
| < 50 | C=C(C=Cc1nc(OCCN2CCOCC2)sc1C)Nc1nc(NC(C)(C)C)c2nc(C(C)C)[nH]c2n1 [Example 38, N*6*-tert-Butyl-8-isopropyl-N*2*-{1-methylene-3-[5-methyl-2-(2-morpholin-4-yl-ethoxy)-thiazol-4-yl]-allyl}-9H-purine-2,6-diamine] |
| ≥ 80 | CCc1nc2c(NC(C)(C)C)nc(Nc3ccc4nc(SC)sc4c3)nc2[nH]1 [Example 36, N*6*-tert-Butyl-8-ethyl-N*2*-(2-methylsulfanyl-benzothiazol-6-yl)-9H-purine-2,6-diamine] |
| 65 to 80 | CC(C)(C)Nc1nc(Nc2ccc3ccccc3c2)nc2[nH]cnc12 [Example 15, N*6*-tert-Butyl-N*2*-naphthalen-2-yl-9H-purine-2,6-diamine] |
| 65 to 80 | C=C(C=Cc1nc(OCCN2CCOCC2)sc1C)Nc1nc(NC(C)(C)C)c2nc(C3CC3)[nH]c2n1 [Example 39, N*6*-tert-Butyl-8-cyclopropyl-N*2*-{1-methylene-3-[5-methyl-2-(2-morpholin-4-yl-ethoxy)-thiazol-4-yl]-allyl}-9H-purine-2,6-diamine] |
| 0 | C=C(C=Cc1nc(OCCN2CCOCC2)sc1C)Nc1nc(NC(C)(C)C)c2nc(C3CCCC3)[nH]c2n1 [Example 40, N*6*-tert-Butyl-8-cyclopentyl-N*2*-{1-methylene-3-[5-methyl-2-(2-morpholin-4-yl-ethoxy)-thiazol-4-yl]-allyl}-9H-purine-2,6-diamine] |
| < 50 | CC(C)c1nc2c(NC(C)(C)C)nc(Nc3ccc4ncsc4c3)nc2[nH]1 [Example 33, N*2*-Benzothiazol-6-yl-N*6*-tert-butyl-8-isopropyl-9H-purine-2,6-diamine] |
| 50 to 65 | Cc1ccc2cc(Nc3nc(NC(C)(C)C)c4nc[nH]c4n3)ccc2n1 [Example 16, N*6*-tert-Butyl-N*2*-(2-methyl-quinolin-6-yl)-9H-purine-2,6-diamine] |
| < 50 | CCCc1nc2c(NC(C)(C)C)nc(Nc3ccc4ncsc4c3)nc2[nH]1 [Example 32, N*2*-Benzothiazol-6-yl-N*6*-tert-butyl-8-propyl-9H-purine-2,6-diamine] |
| < 50 | C=CCc1nc2c(NC(C)(C)C)nc(Nc3ccc4ccccc4c3)nc2[nH]1 [Example 71, 8-Allyl-N*6*-tert-butyl-N*2*-naphthalen-2-yl-9H-purine-2,6-diamine] |
